# Measurements published in patent publication US10851089B2, “Matrix metalloproteinase (MMP) inhibitors and methods of use thereof” (Foresee Pharmaceuticals Co., Ltd., priority 2018, dated 2020).
# Read-outs that look alike come from different tables or passages of the source.
# Assays:
# [1] = biological target: recombinant human MMP-12 catalytic domain (Homo sapiens (Human), UniProt P39900); assay: MMP-12 inhibitory assay (fluorogenic substrate cleavage); format: biochemical
# Protocol: (§1) The inhibitory effect of compounds on the rate of cleaving fluorogenic MMP substrate (Enzo, BML-P128) by recombinant human MMP-12 catalytic domain (Enzo, BML-SE138) was carried out by methods known in the art. Briefly, to each well of a 96-well black opaque plate, all the reagents were sequentially added by pipetting, and the final reaction contained 4 nM of recombinant human MMP-12 catalytic domain, 4 μM of fluorogenic MMP substrate, and various concentrations (0.15 nM to 10,000 nM) of tested compound dilutions in HEPES buffer (pH 7.5) containing 10 mM of CaCl2, 0.01% Brij® 35 (polyoxyethylene (23) lauryl ether), and 0.1 mg/ml of BSA.
# (§2) The enzyme and compounds were pre-incubated on a shaker to mix in wells. After an hour of mixing, fluorogenic substrate was added to each well. Reaction without enzyme was used as a blank control in the plate. The plate was then fed into a plate reader to measure fluorescence intensity at Excitation/Emission wavelengths of 340 nm/440 nm every 10 mins for at least 1 hour at 37° C. The IC50 of each compound in MMP-12 inhibition was determined by using a readout obtained at time point 30 minutes.
# recombinant human MMP-1 = recombinant human MMP-1 (Homo sapiens (Human), UniProt P03956); assay: MMP selectivity assay MMP-1; format: biochemical
# Chain of recombinant human MMP-1 (P03956 100-469): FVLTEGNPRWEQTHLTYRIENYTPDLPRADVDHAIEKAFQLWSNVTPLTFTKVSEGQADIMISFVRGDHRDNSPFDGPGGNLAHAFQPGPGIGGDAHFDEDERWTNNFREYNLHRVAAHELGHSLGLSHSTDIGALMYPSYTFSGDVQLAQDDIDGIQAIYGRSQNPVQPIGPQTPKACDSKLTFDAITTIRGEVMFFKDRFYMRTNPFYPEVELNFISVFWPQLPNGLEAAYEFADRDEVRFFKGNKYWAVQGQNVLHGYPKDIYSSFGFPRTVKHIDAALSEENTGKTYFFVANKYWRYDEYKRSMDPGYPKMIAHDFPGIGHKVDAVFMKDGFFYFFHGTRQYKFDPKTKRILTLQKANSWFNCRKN
# Protocol: as §1, §2
# (§3) The MMP selectivity assay was performed by using other recombinant human MMPs, including MMP-1, MMP-2, MMP-3, MMP-7, MMP-8, MMP-9, MMP-10, MMP-13, and MMP-14. The IC50 of the compounds for the other recombinant human MMPs was determined as described above in Example 1, and are shown in Table 2.
# recombinant human MMP-2 = recombinant human MMP-2 (Homo sapiens (Human), UniProt P08253); assay: MMP selectivity assay MMP-2; format: biochemical
# Chain of recombinant human MMP-2 (P08253 110-660): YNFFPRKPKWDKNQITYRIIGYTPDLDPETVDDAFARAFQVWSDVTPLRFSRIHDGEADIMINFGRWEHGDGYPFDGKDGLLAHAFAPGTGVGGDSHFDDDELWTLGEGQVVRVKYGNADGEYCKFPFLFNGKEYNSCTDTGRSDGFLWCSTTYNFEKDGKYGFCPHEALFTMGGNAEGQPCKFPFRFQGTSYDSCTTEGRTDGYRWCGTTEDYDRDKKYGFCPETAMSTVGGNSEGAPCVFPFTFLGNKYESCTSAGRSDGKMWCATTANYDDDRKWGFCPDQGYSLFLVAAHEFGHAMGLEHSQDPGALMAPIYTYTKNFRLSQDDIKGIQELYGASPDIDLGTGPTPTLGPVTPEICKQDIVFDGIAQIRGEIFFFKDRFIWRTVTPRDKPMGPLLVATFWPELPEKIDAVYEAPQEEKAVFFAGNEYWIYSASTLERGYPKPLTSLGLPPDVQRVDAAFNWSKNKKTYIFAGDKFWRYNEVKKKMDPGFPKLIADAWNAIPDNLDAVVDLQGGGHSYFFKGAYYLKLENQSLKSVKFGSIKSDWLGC
# Protocol: as §1, §2, §3
# recombinant human MMP-3 = recombinant human MMP-3 (Homo sapiens (Human), UniProt P08254); assay: MMP selectivity assay MMP-3; format: biochemical
# Chain of recombinant human MMP-3 (P08254 100-477): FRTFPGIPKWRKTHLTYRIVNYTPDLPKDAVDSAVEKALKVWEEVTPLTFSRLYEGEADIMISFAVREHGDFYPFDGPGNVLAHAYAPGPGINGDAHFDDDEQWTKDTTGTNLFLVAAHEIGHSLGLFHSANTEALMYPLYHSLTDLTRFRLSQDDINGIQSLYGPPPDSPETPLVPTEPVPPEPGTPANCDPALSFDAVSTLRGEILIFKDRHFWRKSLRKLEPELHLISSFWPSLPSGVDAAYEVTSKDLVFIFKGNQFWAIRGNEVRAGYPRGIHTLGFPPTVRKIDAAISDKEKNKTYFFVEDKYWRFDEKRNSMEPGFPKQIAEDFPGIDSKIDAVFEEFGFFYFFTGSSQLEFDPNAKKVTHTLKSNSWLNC
# Protocol: as §1, §2, §3
# recombinant human MMP-7 = recombinant human MMP-7 (Homo sapiens (Human), UniProt P09237); assay: MMP selectivity assay MMP-7; format: biochemical
# Chain of recombinant human MMP-7 (P09237 95-267): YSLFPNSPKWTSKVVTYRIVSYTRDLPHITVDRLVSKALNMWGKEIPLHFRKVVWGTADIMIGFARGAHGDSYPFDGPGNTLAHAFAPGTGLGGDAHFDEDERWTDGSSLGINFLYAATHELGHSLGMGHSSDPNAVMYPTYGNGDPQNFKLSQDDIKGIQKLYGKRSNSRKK
# Protocol: as §1, §2, §3
# recombinant human MMP-9 = recombinant human MMP-9 (Homo sapiens (Human), UniProt P14780); assay: MMP selectivity assay MMP-9; format: biochemical
# Chain of recombinant human MMP-9 (P14780 94-707): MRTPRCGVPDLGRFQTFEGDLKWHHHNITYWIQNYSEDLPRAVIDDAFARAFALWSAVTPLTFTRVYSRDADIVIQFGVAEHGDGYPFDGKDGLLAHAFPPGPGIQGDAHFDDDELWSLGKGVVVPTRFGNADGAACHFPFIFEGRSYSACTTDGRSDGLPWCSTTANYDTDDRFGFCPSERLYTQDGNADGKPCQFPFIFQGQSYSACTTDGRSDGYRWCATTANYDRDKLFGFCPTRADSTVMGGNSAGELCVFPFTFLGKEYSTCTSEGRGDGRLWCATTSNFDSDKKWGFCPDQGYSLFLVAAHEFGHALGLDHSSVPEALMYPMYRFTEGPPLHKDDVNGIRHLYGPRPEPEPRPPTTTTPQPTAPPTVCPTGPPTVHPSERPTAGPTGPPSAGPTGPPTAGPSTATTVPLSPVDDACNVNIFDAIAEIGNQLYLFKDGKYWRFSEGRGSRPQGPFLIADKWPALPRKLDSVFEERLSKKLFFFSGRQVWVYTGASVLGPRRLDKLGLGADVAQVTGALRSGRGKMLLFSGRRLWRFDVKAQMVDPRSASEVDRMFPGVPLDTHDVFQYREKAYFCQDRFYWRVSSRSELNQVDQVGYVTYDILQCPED
# Protocol: as §1, §2, §3
# recombinant human MMP-10 = recombinant human MMP-10 (Homo sapiens (Human), UniProt P09238); assay: MMP selectivity assay MMP-10; format: biochemical
# Chain of recombinant human MMP-10 (P09238 99-476): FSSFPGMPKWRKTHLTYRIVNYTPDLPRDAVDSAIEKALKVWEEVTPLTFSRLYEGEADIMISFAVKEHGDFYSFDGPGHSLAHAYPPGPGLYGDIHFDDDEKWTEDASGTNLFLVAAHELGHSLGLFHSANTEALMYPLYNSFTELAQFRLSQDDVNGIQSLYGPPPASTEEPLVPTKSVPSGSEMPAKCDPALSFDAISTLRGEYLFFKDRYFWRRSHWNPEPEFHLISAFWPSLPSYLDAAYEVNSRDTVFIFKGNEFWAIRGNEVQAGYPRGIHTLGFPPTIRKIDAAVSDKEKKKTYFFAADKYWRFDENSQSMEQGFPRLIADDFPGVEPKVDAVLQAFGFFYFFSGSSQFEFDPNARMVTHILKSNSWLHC
# Protocol: as §1, §2, §3
# recombinant human MMP-13 = recombinant human MMP-13 (Homo sapiens (Human), UniProt P45452); assay: MMP selectivity assay MMP-13; format: biochemical
# Protocol: as §1, §2, §3
# recombinant human MMP-14 = recombinant human MMP-14 (Homo sapiens (Human), UniProt P50281); assay: MMP selectivity assay MMP-14; format: biochemical
# Protocol: as §1, §2, §3
# [2] = system: UUO-induced renal fibrosis; assay: SD rat kidney fibrosis model by unilateral ureteral occlusion (UUO); format: in vivo, Sprague Dawley rat
# Protocol: This study was to evaluate the therapeutic efficacy of the MMP-12 inhibitor FC-4 on a renal fibrosis model by unilateral ureteral occlusion (UUO). Male Sprague Dawley (SD) rats (180-220 g, n=71) were used in this study. Animals were randomly divided into 4 groups: vehicle group (group-1, n=8), FC-4 2 mg/kg/day group (group-2, n=9), FC-4 6 mg/kg/day group (group-3, n=9), FC-4 20 mg/kg/day group (group-4, n=9). Animals were anesthetized with 2.5% isoflurane inhalation. The left ureter was ligated to create a unilateral ureteral occlusion (UUO) model to induce renal fibrosis. The test article FC-4 was administrated twice a day via oral delivery after modeling for 14 days. Peripheral blood serum was prepared at pre-modeling and day-15 (one day after last dosing). All animals were euthanized and processed for left kidney pathology studies.
# Animals: Gender: Male, SD rats, 180-220 g, total 71. Certificate: 11400700272659, Beijing Vital River Laboratory Animal Technology Co., Ltd., China. Animal holding: Animals were maintained in a temperature-controlled environment with a 12 hours light/12 hours dark cycle and free access to food and water. Experimental procedures were performed according to IACUC guidelines in the KCI (SuZhou) Biotech Inc. (KCI) animal research facility. Model creation: Total 36 male SD rats were used in this study. After anesthesia with 2.5% isoflurane inhalation the animal abdomen was opened surgically. The left ureter was exposed and ligated close to the bladder to create the UUO model. After confirming no bleeding, the abdomen wall was closed in layers. The animals were maintained under temperature controlled pad (37° C.) for the recovery from anesthesia, and then were transferred to holding cages with regular food and water.
# Experiment grouping: UUO modeling animals were divided into 4 groups randomly as vehicle (group-1, n=9), FC-4 2 mg/kg/day (group-2, n=9), FC-4 6 mg/kg/day (group-3, n=9), FC-4 20 mg/kg/day (group-4, n=9) (Table 4.1). Dosing regimen: All test articles were designed as an oral administration via a gastric perfusion. Test articles were designed to be delivered twice a day starting on the same day of modeling for 14 days (Table 4.1). Endpoints: 1) Blood collection: Peripheral blood was collected from all animals in each group and prepared for serum at pre-modeling and day-15 (one day after last dosing), stored at −80° C. All animals were euthanized according to KCI SOP. After confirming animal death without breath and heart beat, the left kidneys were perfused with cold PBS followed by 10% neutral formalin and collected for further pathology study. 2) Detection of serum BUN and creatinine: The serum BUN and creatinine level were detected with Hitachi 7060 automatic biochemical analyzer and related test kits. 3) Kidney pathology examination: 3a) Kidney H&E staining and analysis: Following KCI's pathologic SOP all left kidneys were fixed in 10% formalin for at least 24 h at room temperature. After fixation, the kidney was cut longitudinally to get the largest surface and dehydrated in graded ethanol, cleared in xylene, and embedded in paraffin. Thin sections (3-μm) were mounted on glass slides, dewaxed, rehydrated to distilled water, and stained with hematoxylin and eosin (H&E). All stained slides were scanned with NanoZoomer Digital Pathology (S210, Hamamaci, Japan) scanner. Semi quantitative evaluation of the degree of tubular epithelial flattening and dilatation were graded from 0-5 according to the percentage of tubular involvement: score 0=no damage; score 1=1-10% damage; score 2=10-25% damage; score 3=25-50% damage; score 4=50-75% damage; score 5=75-100% damage. Semi quantitative evaluation of the tubular necrosis is graded from 0 to 3 according to the percentage of tubular involvement: score 0=no necrosis; score 1=<25% necrosis; score 2=25-50% necrosis; score 3=>50% necrosis. The average of tubular flattening and dilatation and necrosis as the total tubular damage was presented. […]
# Chain of recombinant human MMP-12 catalytic domain (P39900 106-263): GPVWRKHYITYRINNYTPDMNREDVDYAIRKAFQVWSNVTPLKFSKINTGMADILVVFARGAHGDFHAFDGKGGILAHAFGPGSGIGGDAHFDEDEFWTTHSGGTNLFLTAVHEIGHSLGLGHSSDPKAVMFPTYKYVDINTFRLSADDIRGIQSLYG
structure (smiles),measurement,setting,value
Cc1cc(COc2ccc(Sc3ccoc3C3NC(=O)NC3=O)cc2)ccn1 (centres unmarked) [FC-4],IC50,"[1]; Table 2 selectivity profile, read-out: MMP-12 activity (IC50)",< 10 nM
same,IC50,"[1]; readout at 30 minutes, read-out: MMP-12 IC50",< 10 nM
same,IC50,recombinant human MMP-1,> 10000 nM
same,IC50,recombinant human MMP-2,100 to 1000 nM
same,IC50,recombinant human MMP-3,100 to 1000 nM
same,IC50,recombinant human MMP-7,> 10000 nM
same,IC50,recombinant human MMP-9,100 to 1000 nM
same,IC50,recombinant human MMP-10,100 to 1000 nM
same,IC50,recombinant human MMP-13,10 to 100 nM
same,IC50,recombinant human MMP-14,1000 to 10000 nM
same,Collagen-IV deposition in cortex of left kidney (IHC),"[2]; 6 mg/kg/day, p<0.05",significant reduction
same,Collagen-I deposition in cortex of left kidney (IHC),[2]; 20 mg/kg/day,significant reduction
same,Serum BUN elevation,"[2]; 20 mg/kg/day p.o. bid, day-15, not statistically significant vs model",slightly limit the BUN elevation
same,Collagen-IV deposition in cortex of left kidney (IHC),"[2]; 20 mg/kg/day, p<0.001",significant reduction
same,Interstitial fibrosis score in cortex,"[2]; 20 mg/kg/day, p<0.001",significant reduction
same,Left kidney tubular damage score,"[2]; 2, 6, 20 mg/kg/day, 20 more effective than 2 mg/kg/day (p<0.01)",clear dose dependent effect
same,Interstitial inflammation in cortex (semi quantitative),[2]; dose dependent efficacy,significant reduction
